Converted amounts (≈) assume the structure as drawn. Where two headings read alike, the source gives them in different places. Marks after values point to notes of the source that are not given here. Where a SMILES comes first, the peptide text is derived from it.
What was measured:
[1] = test system: Klebsiella pneumoniae NCTC 13368; format: cell-based; details: KP13368, in µg/mL; for MIC on initial panels: medium and unit not given; for MIC: untitled table, medium/unit not given, values match RPMI of Table 2
[2] = test system: Klebsiella pneumoniae M6; format: cell-based; details: for MIC on initial panels: medium and unit not given, in µg/mL; for MIC: untitled table, medium/unit not given, values match RPMI of Table 2, in µg/mL
[3] = test system: Acinetobacter baumannii ATCC 17978; format: cell-based; details: in µg/mL; for MIC on initial panels / MIC: AB17978; for MIC on initial panels: medium and unit not given; for MIC: untitled table, medium/unit not given, values match RPMI of Table 2; for MIC, Stability in serum (MH): Ab17978
[4] = test system: Pseudomonas aeruginosa NCTC 13437; assay: Antibacterial activity assay (broth microdilution MIC); format: cell-based; details: PA13437, in µg/mL; for MIC on initial panels: medium and unit not given; for MIC: untitled table, medium/unit not given, values match RPMI of Table 2
[5] = test system: Escherichia coli NCTC 12923; format: cell-based; details: for MIC, Stability in serum (MH) / MIC on initial panels / MIC: EC12923; for MIC on initial panels: medium and unit not given; for MIC on initial panels / MIC: in µg/mL; for MIC: untitled table, medium/unit not given, values match RPMI of Table 2
[6] = test system: MS Staphylococcus aureus ATCC 9144; format: cell-based; details: MSSA9144; for MIC on initial panels: medium and unit inferred; for MIC: untitled table, medium/unit not given, values match RPMI of Table 2, in µg/mL
[7] = test system: EMR Staphylococcus aureus-15 (EMRSA-15); format: cell-based; details: for MIC on initial panels / MIC: EMRSA15; for MIC on initial panels: medium and unit inferred; for MIC: untitled table, medium/unit inferred, values match RPMI of Table 2
[8] = test system: EMR Staphylococcus aureus-16 (EMRSA-16); format: cell-based; details: EMRSA16; for MIC on initial panels: medium and unit not given, in µg/mL; for MIC: untitled table, medium/unit inferred, values match RPMI of Table 2
[9] = test system: VS Enterococcus faecalis NCTC 775; assay: Antibacterial activity assay (broth microdilution MIC); format: cell-based; details: for MIC, Peptide concentration: Mueller-Hinton broth; for MIC on initial panels: VSE775, medium and unit not given, in µg/mL
[10] = test system: VRE12201; assay: as above; format: cell-based, Enterococcus faecalis; details: medium and unit inferred
Excerpt: Antibacterial activity assay.
The bacterial strains used are as in the above examples. A table of strains is provided below to aid understanding.

[11] = test system: human red blood cells; assay: Haemolysis assay; details: for Toxicity HC50, Peptide concentration: red cells of human, 1 h
Method: Haemolysis assay. Haemolysis was tested by incubating titrations of AMPs in PBS with freshly collected human red blood cells for 1 hour at 37 C. Control wells were treated with 0.1% Triton-X-100 to ensure complete lysis, or PBS-only to represent no lysis. Samples were spun down to remove non-lysed cells and the OD^550 of the supernatant was measured using a Clariostar plate reader. The percentage of haemolysis was calculated as % haemolysis=(AP−AB)/(AC−AB)×100, where AP is the absorbance value for a known peptide concentration, AC is the absorbance of the 0.1% Triton-X-100 control, AB is the absorbance of the PBS control. Data presented are averages and standard error from three biological replicate experiments.
Methods: The natural AMP (termed AMP1) was modified to produce synthetic variants, AMPs 1a, 2a, 2b, 3a and 3b. Minimum inhibitory concentrations (MICs) were determined using the microbroth dilution assay with Mueller Hinton broth (MHB) or RPMI (with 5% FBS) and stability in serum was tested by conducting MICs in MHB containing 10% FBS. Synergy experiments were performed following a checkerboard protocol. Cytotoxicity was tested against HEK293 and HeLa immortalised human cell-lines using the XTT viability stain and by quantifying haemolysis of human red blood cells. Patch clamp analysis was performed using the Port-a-Patch® automated patch-clamp system on DPhPE/DPhPG (model for a Gram-negative plasma membrane) or DPhPG (Gram-positive) model membranes challenged with peptide. The murine lung infection model was performed using the agar bead model with Staphylococcus aureus strain NCTC 13616 (EMRSA-15).

[12] = Electrophysiology (Port-a-Patch patch-clamp) on model membranes
Excerpt: The depth of insertion into each membrane is shown as the Z-position for each residue, averaged over all four peptides, relative to the phosphate group plane in the upper POPE/POPG (A/E/I) or POPG (C/G/K) bilayer leaflet in six MD simulations. Positive or negative values indicate the peptides are below or above the phosphate group. Representative current traces illustrating membrane activity when DPhPE/DPhPG (B/F/J) or DPhPG (D/H/L) model membranes are challenged with each peptide at the indicated concentration (lowest concentration that induced detectable activity). Data is for pleurocidin (A-D), pleurocidin-KR (E-H) and pleurocidin-VA (I-L). Membrane disordering by each peptide in mixed POPE/POPG bilayers is shown with data obtained from ^2H solid-state NMR (M/N) or from MD simulations where order parameters are calculated for all lipids within 4 Å of a peptide (O/P).
Molecular dynamics simulations. Simulations were carried out on either the ARCHER Cray XC30 supercomputer, or Dell Precision quad core T3400 or T3500 workstations equipped with a 1 kW Power supply (PSU) and two NVIDA PNY GeForce GTX570 or GTX580 graphics cards using Gromacs.^53 The CHARMM36 all-atom force field was used in all simulations^54-56. All simulations were run, as described previously^20 and for a total of 200 nanoseconds and repeated twice, with peptides inserted at different positions and orientations, giving a total of approximately 4.0 μs simulation. Liposome preparation and circular dichroism (CD) spectroscopy. Small unilamellar vesicles (SUV) were produced and far-UV spectra of the peptides obtained as described previously^20 using a Chirascan Plus spectrometer (Applied Photophysics, Leatherhead, UK) with samples maintained at 310 K. For liposome experiments the lipid concentration was 5 mM and a peptide to lipid molar ratio of 1:100 was maintained while the SDS micelles concentration was 20 mM with 200 μM peptide. Electrophysiology experiments (Patch-clamp). Patch clamp experiments were performed using the Port-a-Patch® (Nanion Technologies GmbH, Munich, Germany) with giant unilamellar vesicles (GUVs) composed of DPhPE/DPhPG (60:40, mol:mol) or DPhPG prepared by the electroformation method using the Nanion Vesicle Prep Pro setup (Nanion Technologies GmbH, Munich, Germany) as described previously.^20
Synergy experiments were performed following a checkerboard protocol.

| Compound | MIC, Stability in serum (MH) ([1]; No serum) | MIC, Stability in serum (MH) ([1]; Serum (10% fetal bovine serum)) | MIC on initial panels [1] | MIC [1] | MIC, Stability in serum (MH) ([2]; No serum) | MIC, Stability in serum (MH) ([2]; Serum (10% fetal bovine serum)) | MIC on initial panels [2] | MIC [2] | MIC on initial panels [3] | MIC [3] | MIC, Stability in serum (MH) ([3]; No serum) | MIC, Stability in serum (MH) ([3]; Serum (10% fetal bovine serum)) | MIC, Stability in serum (MH) ([4]; No serum) | MIC, Stability in serum (MH) ([4]; Serum (10% fetal bovine serum)) | MIC on initial panels [4] | MIC [4] | MIC, Stability in serum (MH) ([5]; No serum) | MIC, Stability in serum (MH) ([5]; Serum (10% fetal bovine serum)) | MIC on initial panels [5] | MIC [5] | also measured |
| --- | --- | --- | --- | --- | --- | --- | --- | --- | --- | --- | --- | --- | --- | --- | --- | --- | --- | --- | --- | --- | --- |
| CC(C)C[C@@H](NC(=O)[C@@H](Cc1ccc(O)cc1)NC(=O)[C@@H](Cc1c[nH]cn1)NC(=O)[C@H](NC(=O)[C@@H](CC(C)C)NC(=O)[C@@H](C)NC(=O)[C@@H](C)NC(=O)[C@@H](CCCNC(=N)N)NC(=O)CNC(=O)[C@H](NC(=O)[C@@H](Cc1c[nH]cn1)NC(=O)[C@@H](CCCNC(=N)N)NC(=O)CNC(=O)[C@H](NC(=O)[C@@H](Cc1c[nH]cn1)NC(=O)[C@@H](C)NC(=O)[C@@H](C)NC(=O)[C@@H](CCCNC(=N)N)NC(=O)[C@@H](CCCNC(=N)N)NC(=O)[C@@H](Cc1ccccc1)NC(=O)[C@@H](Cc1ccccc1)NC(=O)[C@@H](CO)NC(=O)CNC(=O)[C@@H](Cc1c[nH]c2ccccc12)NC(=O)CN)C(C)C)C(C)C)[C@H](C)O)C(N)=O [D-pleurocidin-KR] (HELM PEPTIDE1{G.[dW].G.[dS].[dF].[dF].[dR].[dR].[dA].[dA].[dH].[dV].G.[dR].[dH].[dV].G.[dR].[dA].[dA].[dL].[dT].[dH].[dY].[dL].[am]}$$$$V2.0; N-terminus assumed) | 2 | 1 | 2 | 4 | 2 µg/mL (≈ 0.709 µM) | 0.5 µg/mL (≈ 0.177 µM) | 2 | 4 | 2 | 4 | 2 | 0.5 | 4 | 8 | 4 | 16 | 1 µg/mL (≈ 0.354 µM) | 0.25 µg/mL (≈ 0.0886 µM) | 1 | 2 | MIC on initial panels [6]: 2 µg/mL (≈ 0.709 µM); MIC [6]: 0.25-0.5; MIC on initial panels [7]: 2 µg/mL (≈ 0.709 µM); MIC [7]: 0.5 µg/mL (≈ 0.177 µM); MIC, Peptide concentration ([7]; Mueller-Hinton broth): 2 µg/mL (≈ 0.709 µM); MIC, Peptide concentration ([7]; Mueller-Hinton broth, listed as D-PLEUROCIDIN-KR): 4 µg/mL (≈ 1.42 µM); MIC on initial panels [8]: 4; MIC [8]: 1 µg/mL (≈ 0.354 µM); MIC, Peptide concentration [9]: 8 (NG) μg/ml; MIC on initial panels [9]: 8; MIC on initial panels [10]: 8 µg/mL (≈ 2.83 µM); therapeutic index over red blood cell haemolysis [11]: at least 100 fold; Toxicity HC50, Peptide concentration [11]: ~400 µg/mL |
| CC(C)C[C@H](NC(=O)[C@H](Cc1ccc(O)cc1)NC(=O)[C@H](Cc1c[nH]cn1)NC(=O)[C@@H](NC(=O)[C@H](CC(C)C)NC(=O)[C@H](C)NC(=O)[C@H](C)NC(=O)[C@H](CCCNC(=N)N)NC(=O)CNC(=O)[C@@H](NC(=O)[C@H](Cc1c[nH]cn1)NC(=O)[C@H](CCCNC(=N)N)NC(=O)CNC(=O)[C@@H](NC(=O)[C@H](Cc1c[nH]cn1)NC(=O)[C@H](C)NC(=O)[C@H](C)NC(=O)[C@H](CCCNC(=N)N)NC(=O)[C@H](CCCNC(=N)N)NC(=O)[C@H](Cc1ccccc1)NC(=O)[C@H](Cc1ccccc1)NC(=O)[C@H](CO)NC(=O)CNC(=O)[C@H](Cc1c[nH]c2ccccc12)NC(=O)CN)C(C)C)C(C)C)[C@@H](C)O)C(N)=O [Pleurocidin-KR] (H-GWGSFFRRAAHVGRHVGRAALTHYL-NH2; N-terminus assumed) | 2 | 4 | 2-4 | 32 | 4 µg/mL (≈ 1.42 µM) | 2 µg/mL (≈ 0.709 µM) | 2 | 32 | 1 | 8 | 2 | 2 | 4 | 32* | 8 | >32 | 2 µg/mL (≈ 0.709 µM) | 1 µg/mL (≈ 0.354 µM) | 1 | 16 | MIC, Peptide concentration [2]: 2 µg/mL (≈ 0.709 µM); MIC, Peptide concentration ([5]; NCTC 12923): 16 µg/mL (≈ 5.67 µM); MIC on initial panels [6]: 2 µg/mL (≈ 0.709 µM); MIC [6]: 4; MIC, Peptide concentration ([7]; EMR -15 (EMRSA-15)): 4 (4) μg/ml; MIC on initial panels [7]: 4 µg/mL (≈ 1.42 µM); MIC [7]: 4 µg/mL (≈ 1.42 µM); MIC on initial panels [8]: 4; MIC [8]: 8 µg/mL (≈ 2.83 µM); MIC, Peptide concentration [9]: 16 (NG) μg/ml; MIC on initial panels [9]: 16; MIC on initial panels [10]: 32 µg/mL (≈ 11.3 µM); Toxicity HC50, Peptide concentration [11]: >400 µg/mL; Peptide concentration necessary to start membrane activity ([12]; DPhPE/DPhPG): 10 µM; Peptide concentration necessary to start membrane activity ([12]; DPhPG): 7.5 µM |

From patent publication US20230047825A1, “ANTIMICROBIAL PEPTIDES” (priority 2019, published 2023)
